# Measured values reported in patent US6376506B1, “Sulfamide-metalloprotease inhibitors” (Syntex (U.S.A.) LLC, priority 1997, dated 2002).
# How the values were obtained:
# [1] = system: collagen matrix of bovine cartilage explants; assay: Degradation of cartilage plug in vitro (IL-1 stimulated cartilage explant, hydroxyproline content); type: cell-based; settings: IL-1-α stimulated bovine cartilage explants, 21 days, hydroxyproline content relative to control; compounds at 10 to 300 nm
# Procedure: The ability of the compounds of this invention to inhibit the degradation of the collagen matrix (as judged by release of hydroxyproline) was determined by the cartilage plug degradation assay in vitro by following a slight modification of the method described in Spirito, S., Doughty, E., et al., “Metalloproteinase inhibitors halt collagen breakdown in IL-1 induced bovine nasal cartilage cultures” Inflamm. Res., 44, Supp. 2: S131—S132, (1995).
# Cartilage explants prepared from freshly sacrificed bovine knee joints were added to the culture medium (Dubelco's modified eagle medium, Gibco # 21063-001, Gibco BRL Products, Gaithersburg, Md.), without phenol red, but with HEPES, and L-glutamine and fungizone 2.5 μg/ml, gentamicin 50 μg/ml, penicillin 100 U/ml, and streptomycin 100 μg/ml). The cultures were stimulated with IL-1-α at a final concentration of 20 ng/ml. Compounds of Formula (I), were added at concentrations between 10 and 300 nm in DMSO. The control samples contained only L-1-α. The cultures were incubated at 37° C. in an atmosphere of air with 6% CO2 for 21 days during which time the medium was changed twice/week. The cartilage plugs were removed, hydrolyzed and the hydroxyproline content was determined. The MMP inhibitory activity of test materials is the measure of the hydroxyproline content in the test group relative to the vehicle treated group (control group).
# [2] = molecular target: T1, human collagenase-1 catalytic domain (Homo sapiens, UniProt P03956); assay: MMP inhibition in vitro, human collagenase-1; type: biochemical; settings: MCA-Pro-Leu-Gly-Leu-DPA-Ala-Arg-NH2 hydrolysis at 37° C.; read-out: Collagenase-I IC50
# T1 construct: the collagenase-1 catalytic domain was released by treatment with 1 mM of aminophenylmercuric acetate (APMA); ubiquitin (cleaved yes); made in house; host or cells: E. coli
# T1 sequence (P03956 100-269 limits assumed): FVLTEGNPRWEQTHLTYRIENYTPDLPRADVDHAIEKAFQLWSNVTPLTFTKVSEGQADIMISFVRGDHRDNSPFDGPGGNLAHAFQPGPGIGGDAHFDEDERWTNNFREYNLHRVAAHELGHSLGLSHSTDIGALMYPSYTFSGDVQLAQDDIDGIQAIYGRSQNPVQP
# Procedure: The catalytic domain of human collagenase-1 was expressed as a fusion protein with ubiquitin in E. Coli as described in Gehring, E. R. et al., J. Biol. Chem., 270, 22507, (1995). After purification of the fusion protein, the collagenase-1 catalytic domain was released by treatment with 1 mM of aminophenylmercuric acetate (APMA) for 1 hour at 37° C. and then purified by zinc chelate chromatography.
# (§1) The matrix metalloprotease inhibitory activity of compounds of this invention in vitro was determined based on the hydrolysis of MCA-Pro-Leu-Gly-Leu-DPA-Ala-Arg-NH2 (Bachem, Inc.) at 37° C. as described in Knight, C. G., et al., FEBS Lett., 296, 263-266 (1992).
# (§2) The matrix metalloprotease enzyme was diluted with assay buffer (50 mM Tricine pH 7.5, 200 mM NaCl, 10 mM CaCl2, and 0.005% Brij-35) containing 10 μmole of above substrate dissolved in DMSO. Compounds of the invention dissolved in DMSO or only DMSO (control samples) were added such that the final DMSO concentration in all assays was 2.5%. The fluorescence changes were monitored with a Perkin-Elmer LS-50B flourimeter using an excitation wavelength of 328 nm and an emission wavelength of 393 nm.
# [3] = system: bovine nasal cartilage plugs implanted subcutaneously in female Lewis rats; assay: Cartilage plug degradation in vivo (cartilage plug implant assay, hydroxyproline content); design: species or system rat; settings: 8 or 9 days, hydroxyproline content relative to vehicle group
# [4] = molecular target: T2, human collagenase-3 catalytic domain (Homo sapiens, UniProt P45452); assay: MMP inhibition in vitro, human collagenase-3; type: biochemical; settings: MCA-Pro-Leu-Gly-Leu-DPA-Ala-Arg-NH2 hydrolysis at 37° C.; read-out: Collagenase-III IC50
# T2 construct: After purification, the catalytic domain was released by treatment with 1 mM APMA for 1 hour at 37° C; ubiquitin (N, cleaved yes); made in house; host or cells: E. coli
# Procedure: The propeptide and catalytic domain portion of human collagcenase-3 was expressed in E. Coli as an N-terminal fusion protein with ubiquitin. After purification, the catalytic domain was released by treatment with 1 mM APMA for 1 hour at 37° C., and then purified by zinc chelate chromatography.
# as §1, §2
# Human Monomac 6 cells = assay: Inhibition of TNF release in vitro assay (LPS/PMA stimulated); type: cell-based; settings: Conc. 2 μM, LPS/PMA stimulated Monomac 6 cells, 2 h
# Procedure: The activity of compounds of this invention in inhibiting the TNF release was determined, using the a minor modification of the method described in Pradines-Figueres, A. and Raetz, C. R. H., J. Biol. Chem., 267 (32), 23261, (1992).
# Human Monomac 6 cells (Ziegler-Heitbrock, H. W. L., et al., Int. J. Cancer, 41, 456, (1988)) were cultured at 37° C. in RPMI 1640 medium containing 10% fetal calf serum to a density of 1×10^5 cells/ml. 0.23 ml of these cells were placed in each well of a tissue culture plate and the cells were incubated for 15 min. The test compounds were dissolved in above mentioned medium and added and the incubation was continued for an additional 15 min. 10 μl of an lipopolysaccharide/phorbol-12-myristate-13-acetate (LPS/PMA) mixture was added such that the final concentration of lipopolysaccharide was 10 ng/ml and the final concentration of phorbol-12-myristate-13-acetate was 30 ng/ml. The cells were incubated for 2 h after which the plate was centrifuged and the medium was removed and analyzed for TNF content. The analysis was performed using a TNF Quantikine® Immunoassay (R & D Systems, Minneapolis, Minn. 55413) by following the manufacturer's protocol.
# TNF-α = assay: Inhibition of LPS induced TNF-α production in mice in vivo assay; settings: female Balb/c mice, compound subcutaneously 1 h before LPS i.p., serum TNF-α 1.5 h after LPS
# Procedure: The activity of compounds of this invention in inhibiting the TNF-α release was determined using a minor modification of the methods described in Zanetti, G.; Heumann, D., et. al., “Cytokine production after intravenous or peritoneal Gram-negative bacterial challenge in mice” J. Immunol., 148, 1890, (1992) and Sekut, L., Menius, J. A., et. al., “Evaluation if the significance of related levels of systemic and localized tumor necrosis factor in different animal models of inflammation” J. Lab. Clin. Med., 124, 813, (1994).
# Female Balb/c mice were anesthetized and injected subcutaneously with the test compounds dissolved in CMC vehicle or hydroxypropylmethyl cellulose based vehicle. Control animals received only the vehicle. After 1 h, LPS (50 μg/mouse, Sigma #13129, Sigma Chemical Co., St. Louis, Mo.) was injected intraperitoneally. After 1.5 h, blood was collected from the retro-orbital plexus region of the animals in a microtainer serum separator tube (Becton Dickinson, Cat. No. #5960, Becton Dickinson & Co., Franklin Lakes, N.J.). The sera was separated and the amount of TNF-α was determined using the EM-TNFA® kit (Endogen, Woburn, Mass.) by following the manufacturer's protocol.
Compound,% protection [1],melting point,IC50 [2],% protection [3],IC50 [4],% inhibition (Human Monomac 6 cells),% inhibition (TNF-α)
"CC(C)[C@@H](NS(=O)(=O)N1CCC(Oc2ccc(Cl)cc2)CC1)C(=O)NO [compound 59, N-hydroxy-2-(R)-{[4-(4-chlorophenoxy)piperidine-1-sulfonyl]amino}-3-methylbutyramide]",54%,139.2 to 139.6 °C,110 nM,58%,0.18 nM,–,–
"CC(C)[C@@H](NS(=O)(=O)N1CCC(Oc2ccc(Cl)cn2)CC1)C(=O)NO [compound 100, N-hydroxy-2-(R)-{[4-(5-chloropyridin-2-yloxy)piperidine-1-sulfonyl]amino}-3-methylbutyramide]",68%,97 to 98.4 °C,–,40%,–,–,–
"N-hydroxy-1-[4-(4,5,6,7-tetrafluoroindol-3-yl)piperazine-1-sulfonyl]piperidine-2-(RS)-carboxamide [compound 299]",–,–,> 50000 nM,–,410 nM,90%,52%
N-hydroxy-4-(morpholine-4-ylcarbonyl)piperazine-1-sulfonyl]-4-(S)-hydroxypiperidine-2-(R)-carboxamide [compound 321],–,–,–,–,–,93%,50%
